In patent US20130344490A1, “NEOPLASTIC CELLS GROWN ON DECELLULARIZED BIOMATRIX” (priority 2012, published 2013):

Assays:
[1] = tested on: human 1299 cells (NCI-H1299) cultured within rat decellularized biomatrices; assay: Ki-67 and TUNEL staining of treated and untreated lung tissue constructs; type: cell-based; details: 50 μM Cisplatin from day 4 of culture; compared with untreated constructs (FIG. 14)
Text: Lobes of same lungs were dissected at day 0 (day of seeding cancer cells onto biomatrix), day 3, day 7, and day 11 or day 14 (or both) in sterile conditions under the culture hood to see the progression of tumor growth. After lobectomy, lung tissues were placed in 70% ethanol and analyzed in the Pathology Core Laboratory at The Methodist Hospital Research Institute. Briefly, the tissues were fixed in 10% formalin overnight, processed, and embedded in paraffin. Embedded tissues were cut into […] slices and mounted on slides, and the paraffin was removed; antigen retrieval was performed with antigen unmasking solution (H-3300; Vector Laboratories, Burlingame, Calif.) in a steamer for 20 minutes. Slides were cooled for 20 minutes at room temperature, washed in PBS, and stained with hematoxylin and eosin, Movat Pentachrome (American MasterTech Scientific, Lodi, Calif.), elastin (VVG kit, Ventana Nexus, Tucson, Ariz.), and other markers following the standard protocol. Stained slides were examined by expert board-certified pathologists, and images were captured using a microscope (Olympus, Center Valley, Pa.). […] Treatment (Tx) with 50 μM Cisplatin was commenced at day 4 of culture, and treated tissue constructs and untreated controls were assessed and compared at days 4, 8, 11, and 14 of culture (FIGS. 11 and 12). […]

[2] = tested on: human 1299 cells (NCI-H1299) cultured within rat decellularized biomatrices; assay: Circulating cells in perfusion fluid of treated and untreated lung tissue constructs; type: cell-based; details: 50 μM Cisplatin from day 4 of culture, over the observed time period, untreated showed steady increase (FIG. 15)
Protocol: In some embodiments, the analyzing comprises determining the number of cells in the perfusion fluid used to perfuse a tissue construct as described herein. The number of cells in the perfusion fluid, also referred to as the number of circulating cells herein, can be used as an indicator for the metastatic properties of neoplastic cells cultured within the tissue construct. For example, in tissue constructs in which neoplastic cells are cultured within the interstitial space, and perfusion fluid is run through the vascular space, cells found in the perfusion fluid may stem from neoplastic cells that have migrated across the basement membrane separating the interstitial and the vascular space. Since the capability to migrate across the basement membrane and, thus, to enter into the blood stream, is a hallmark feature of metastasizing cancer cells, the ability to migrate across the basement membrane in a tissue construct is a biomarker useful for assessing metastatic capabilities of cells grown in tissue constructs provided herein. […] Treatment (Tx) with 50 μM Cisplatin was commenced at day 4 of culture, and treated tissue constructs and untreated controls were assessed and compared at days 4, 8, 11, and 14 of culture (FIGS. 11 and 12). […]

[3] = tested on: human 1299 cells (NCI-H1299) cultured within rat decellularized biomatrices; assay: Cisplatin treatment of tissue constructs: tumor size and live cells; type: cell-based; details: 50 μM Cisplatin from day 4 of culture
Protocol: A simplified, small, closed-system bioreactor was set up in an incubator for lung cell culture on the lung biomatrix (FIG. 1B). A custom-designed 500-mL glass bottle was used with three holes in the cap fitted with a female Luer thread-style panel (Cole-Parmer), one for the pulmonary artery cannula, one for the trachea cannula, and one for circulation of medium from the bottle. Medium was constantly circulated with the help of a Masterflex pump (Cole-Parmer) through a 10-foot length of silicone oxygenator tubing wrapped around a mesh of wire solenoid (Cole-Parmer). The medium was perfused through the pulmonary artery cannula into lungs at a flow rate of 6 mL/min. For controlled flow through the pulmonary artery, it was connected to a three-way stopcock (Smith Medical, Dublin, Ohio). The bottle was filled with 150 mL of complete medium or serum-free medium, which was circulated through the oxygenator tubing to prevent air bubbles. […] Treatment (Tx) with 50 μM Cisplatin was commenced at day 4 of culture, and treated tissue constructs and untreated controls were assessed and compared at days 4, 8, 11, and 14 of culture (FIGS. 11 and 12). […]

MMPs 1, 2, 7, 9, and 10 = assay: MMP secretion into perfusion fluid of treated and untreated lung tissue constructs; type: cell-based, human; details: 50 μM Cisplatin from day 4 of culture
Text: In some embodiments, the analyzing comprises an assessment of one or more molecules secreted into a perfusion fluid by the cells cultured within the tissue construct. For example, in a lung tissue construct, the analyzing may comprise detecting a protein, peptide, or nucleic acid in a perfusion fluid run through the pulmonary artery. In some embodiments, the secreted factor assessed is a secreted factor associated with cancer, or with a property of neoplastic cells, for example, with the metastatic capabilities of neoplastic cells. Secreted factors associated with cancer are known to those of skill in the art and include factors that are typically secreted by a tumor, such as growth factors and pro-angiogenic factors, as are factors associated with the metastatic capabilities of neoplastic cells. Metastasis-associated factors include, for example, matrix metalloproteases (MMPs, e.g., MMP-1, MMP-2, MMP-3, MMP-9, and MMP-10, as well as other MMPs). Tissue constructs were generated by culturing human 1299 cells, also known as NCI-H1299 or CRL-5803, a human non-small cell lung carcinoma cell line, within rat decellularized biomatrices. Treatment (Tx) with 50 μM Cisplatin was commenced at day 4 of culture, and treated tissue constructs and untreated controls were assessed and compared at days 4, 8, 11, and 14 of culture (FIGS. 11 and 12). […]

SMILES: N.N.[Cl][Pt][Cl] [Cisplatin]
- Ki-67 expression [1]: decreased in treated constructs
- TUNEL staining [1]: widespread apoptotic processes
- number of circulating cells [2]: gradual decrease over the observed time period after initial rapid release of the circulating cells
- percentage of live cells ([3]; compared with non-treated constructs (FIG. 13)): dramatically decreased
- Tumor size ([3]; compared with untreated constructs, days 4, 8, 11, 14 (FIG. 13)): dramatically decreased
- Levels of the assessed MMPs at the end of the observation period (MMPs 1, 2, 7, 9, and 10; end of the observation period (FIG. 16)): no detectable levels
- Levels of MMPs 1, 2, 7, 9, and 10 in perfusion fluid after start of treatment (MMPs 1, 2, 7, 9, and 10; untreated gradually increased over time (FIG. 16)): levels of all MMPs were diminished
